Bounds are passed on as bounds.

Experimental findings from patent US20260132129A1 (Genesis Therapeutics, Inc., priority 2022, published 2026) are described below.

The target of this assay is T1, PI3Kα H1047R (T47D cells) (Homo sapiens, UniProt P42336, H1047R).
T1 construct: endogenous in cells; host or cells: T47D cells
Description: PI3Kα cellular assay: pAKT HTRF in T47D cells after EGF stimulation. Type of assay: cell-based. Conditions: for IC50: T47D cells (PI3Kα H1047R), pAKT S473 HTRF, 1 hr compound, 20 ng/ml EGF 10 min. In outline: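 pAKT read by HTRF in lysates of EGF-stimulated (20 ng/mL, 10 min) T47D H1047R cells. Before stimulation, serum-starved cells (16 h) received compound for 1 h at 37 °C, dosed from 10,000 nM down to 0.5 nM in 3-fold steps.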

T1 sequence (P42336 whole entry H1047R): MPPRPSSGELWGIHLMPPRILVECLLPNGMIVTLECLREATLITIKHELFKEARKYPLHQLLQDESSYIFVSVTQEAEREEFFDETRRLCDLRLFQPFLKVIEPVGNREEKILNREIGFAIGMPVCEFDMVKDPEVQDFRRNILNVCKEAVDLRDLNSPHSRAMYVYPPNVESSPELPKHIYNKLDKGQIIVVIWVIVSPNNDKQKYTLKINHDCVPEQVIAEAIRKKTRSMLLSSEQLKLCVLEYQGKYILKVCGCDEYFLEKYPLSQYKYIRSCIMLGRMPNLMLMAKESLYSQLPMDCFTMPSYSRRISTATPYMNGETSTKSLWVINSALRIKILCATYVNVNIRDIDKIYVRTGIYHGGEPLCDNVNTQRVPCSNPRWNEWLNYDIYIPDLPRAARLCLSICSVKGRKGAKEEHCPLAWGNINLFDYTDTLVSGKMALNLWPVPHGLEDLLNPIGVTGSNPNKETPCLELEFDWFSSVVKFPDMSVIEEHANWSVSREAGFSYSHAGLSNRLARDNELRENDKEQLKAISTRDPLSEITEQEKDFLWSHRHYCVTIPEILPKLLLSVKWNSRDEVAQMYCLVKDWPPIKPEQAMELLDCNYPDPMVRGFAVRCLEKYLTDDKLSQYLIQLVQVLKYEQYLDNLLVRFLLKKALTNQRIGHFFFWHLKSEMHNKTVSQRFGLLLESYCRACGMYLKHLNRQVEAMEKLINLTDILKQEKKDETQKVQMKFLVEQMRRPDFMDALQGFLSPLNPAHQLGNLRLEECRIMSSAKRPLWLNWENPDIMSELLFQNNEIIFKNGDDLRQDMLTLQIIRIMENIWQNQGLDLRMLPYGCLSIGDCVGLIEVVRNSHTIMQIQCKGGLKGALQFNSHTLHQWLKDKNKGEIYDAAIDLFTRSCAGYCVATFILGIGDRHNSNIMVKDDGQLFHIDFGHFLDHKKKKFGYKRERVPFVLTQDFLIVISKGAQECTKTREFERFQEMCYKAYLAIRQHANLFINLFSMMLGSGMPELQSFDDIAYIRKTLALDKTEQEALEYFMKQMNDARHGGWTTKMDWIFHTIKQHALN
T1 sequence (P27986 whole entry partner): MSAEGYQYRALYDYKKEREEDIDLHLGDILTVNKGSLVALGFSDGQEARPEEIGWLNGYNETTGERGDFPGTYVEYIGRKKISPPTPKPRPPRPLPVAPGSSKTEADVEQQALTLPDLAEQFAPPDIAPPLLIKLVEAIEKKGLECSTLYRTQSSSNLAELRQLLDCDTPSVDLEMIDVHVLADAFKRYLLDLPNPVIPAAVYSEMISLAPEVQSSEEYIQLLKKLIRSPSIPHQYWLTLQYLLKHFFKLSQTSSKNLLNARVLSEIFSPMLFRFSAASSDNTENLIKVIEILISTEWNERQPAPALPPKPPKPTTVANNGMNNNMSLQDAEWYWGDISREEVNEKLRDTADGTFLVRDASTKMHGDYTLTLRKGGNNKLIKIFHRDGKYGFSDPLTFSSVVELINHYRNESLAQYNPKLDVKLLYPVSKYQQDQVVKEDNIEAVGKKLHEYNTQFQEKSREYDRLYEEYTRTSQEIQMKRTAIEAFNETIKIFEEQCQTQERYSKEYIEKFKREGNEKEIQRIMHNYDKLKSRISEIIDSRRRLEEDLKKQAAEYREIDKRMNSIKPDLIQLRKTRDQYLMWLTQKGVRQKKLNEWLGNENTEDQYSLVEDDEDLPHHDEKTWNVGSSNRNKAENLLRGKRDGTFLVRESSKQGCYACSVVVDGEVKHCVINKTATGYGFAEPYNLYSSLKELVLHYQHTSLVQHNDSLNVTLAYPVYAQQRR

Consider `Cc1cc([C@H](C)Nc2ccccc2C(=O)O)c2nc(-c3ccc4[nH]cnc4c3)cc(=O)n2c1` [Compound 517], for which the IC50 was over 2000 nM and the “T47D pAKT S473 HTRF IC50 (H1047R): T47D (H1047R) selectivity over SKBR3 (WT)” value is on record as “C (C denotes ≤5-fold)”.

In the case of `CC(=O)Oc1nc2ccc(-c3cc(=O)n4cc(C)cc([C@H](C)Nc5ccccc5C(=O)O)c4n3)cn2n1` [Compound 518], the 50% inhibitory concentration (IC50) is over 2000 nM and the “T47D pAKT S473 HTRF IC50 (H1047R): T47D (H1047R) selectivity over SKBR3 (WT)” value was “C (C denotes ≤5-fold)”.

For `Cc1cc(C(C)Nc2ccccc2C(=O)O)c2nc(-c3ccc4nc(NC(=O)C5CC5)nn4c3)cc(=O)n2c1` (centres unmarked) [Compound 519], the IC50 is over 2000 nM and the “T47D pAKT S473 HTRF IC50 (H1047R): T47D (H1047R) selectivity over SKBR3 (WT)” value was “C (C denotes ≤5-fold)”.

On to `Cc1cc([C@@H](C)Nc2ccccc2C(=O)O)c2nc(-c3ccc4nc(NC(=O)C5CC5)nn4c3)cc(=O)n2c1` [Compound 520], for which the 50% inhibitory concentration (IC50) is over 2000 nM and the “T47D pAKT S473 HTRF IC50 (H1047R): T47D (H1047R) selectivity over SKBR3 (WT)” value was “C (C denotes ≤5-fold)”.

In the case of `Cc1cc([C@H](C)Nc2ccccc2C(=O)O)c2nc(-c3ccc4nc(NC(=O)C5CC5)nn4c3)cc(=O)n2c1` [Compound 521], the concentration for half-maximal inhibition (IC50) is over 2000 nM and the “T47D pAKT S473 HTRF IC50 (H1047R): T47D (H1047R) selectivity over SKBR3 (WT)” value was “C (C denotes ≤5-fold)”.

`CC(=O)N1CCC(c2cc(=O)n3cc(C)cc([C@@H](C)Nc4ccccc4C(=O)O)c3n2)CC1` [Compound 522]: the concentration for half-maximal inhibition (IC50) was over 2000 nM and the “T47D pAKT S473 HTRF IC50 (H1047R): T47D (H1047R) selectivity over SKBR3 (WT)” value was “C (C denotes ≤5-fold)”.

Consider `CC(=O)N1CCC(c2cc(=O)n3cc(C)cc([C@H](C)Nc4ccccc4C(=O)O)c3n2)CC1` [Compound 523], for which the concentration for half-maximal inhibition (IC50) fell in the range of 500 to 2000 nM and the “T47D pAKT S473 HTRF IC50 (H1047R): T47D (H1047R) selectivity over SKBR3 (WT)” value was “B (B denotes 20-fold≥value>5-fold)”.

Take `Cc1cc(C(C)Nc2ccccc2C(=O)O)c2nc(C3CCN(C(=O)C4(N)CC4)CC3)cc(=O)n2c1` (centres unmarked) [Compound 524]: the IC50 was over 2000 nM and the “T47D pAKT S473 HTRF IC50 (H1047R): T47D (H1047R) selectivity over SKBR3 (WT)” value is listed as “C (C denotes ≤5-fold)”.

Take `Cc1cc([C@@H](C)Nc2ccccc2C(=O)O)c2nc(C3CCN(C(=O)C4(N)CC4)CC3)cc(=O)n2c1` [Compound 525]: the IC50 was over 2000 nM and the “T47D pAKT S473 HTRF IC50 (H1047R): T47D (H1047R) selectivity over SKBR3 (WT)” value is “C (C denotes ≤5-fold)”.

As to `Cc1cc([C@H](C)Nc2ccccc2C(=O)O)c2nc(C3CCN(C(=O)C4(N)CC4)CC3)cc(=O)n2c1` [Compound 526], the IC50 was over 2000 nM and the “T47D pAKT S473 HTRF IC50 (H1047R): T47D (H1047R) selectivity over SKBR3 (WT)” value is “C (C denotes ≤5-fold)”.

As for `Cc1cc(C(C)Nc2ccccc2C(=O)O)c2nc(N3CCN(C(=O)CN)CC3)cc(=O)n2c1` (centres unmarked) [Compound 527], the IC50 was over 2000 nM and the “T47D pAKT S473 HTRF IC50 (H1047R): T47D (H1047R) selectivity over SKBR3 (WT)” value is “C (C denotes ≤5-fold)”.

Take `Cc1cc([C@H](C)Nc2ccccc2C(=O)O)c2nc(N3CCN(C(=O)CN)CC3)cc(=O)n2c1` [Compound 528]: the IC50 is over 2000 nM and the “T47D pAKT S473 HTRF IC50 (H1047R): T47D (H1047R) selectivity over SKBR3 (WT)” value was “C (C denotes ≤5-fold)”.

For the compound `Cc1cc(C(C)Nc2ccccc2C(=O)O)c2nc(N3CCN(C(=O)CCN)CC3)cc(=O)n2c1` (centres unmarked) [Compound 529], the IC50 was over 2000 nM and the “T47D pAKT S473 HTRF IC50 (H1047R): T47D (H1047R) selectivity over SKBR3 (WT)” value is on record as “C (C denotes ≤5-fold)”.

For `Cc1cc(C(C)Nc2ccccc2C(=O)O)c2nc(N3CCN(CCC(N)=O)CC3)cc(=O)n2c1` (centres unmarked) [Compound 530], the IC50 was over 2000 nM and the “T47D pAKT S473 HTRF IC50 (H1047R): T47D (H1047R) selectivity over SKBR3 (WT)” value is listed as “C (C denotes ≤5-fold)”.

Take `Cc1cc([C@@H](C)Nc2ccccc2C(=O)O)c2nc([C@H]3CCOC3)cc(=O)n2c1` [Compound 537]: the half-inhibitory concentration (IC50) lay in the range of 500 to 2000 nM and the “T47D pAKT S473 HTRF IC50 (H1047R): T47D (H1047R) selectivity over SKBR3 (WT)” value is given as “B (B denotes 20-fold≥value>5-fold)”.

As for `Cc1cc([C@@H](C)Nc2ccccc2C(=O)O)c2nc([C@@H]3CCOC3)cc(=O)n2c1` [Compound 538], the IC50 is over 2000 nM and the “T47D pAKT S473 HTRF IC50 (H1047R): T47D (H1047R) selectivity over SKBR3 (WT)” value is recorded as “C (C denotes ≤5-fold)”.
